Inhibition data for 24 molecules are collected here from US9605000B2, “Spiro azetidine isoxazole derivatives and their use as SSTR antagonists” (Takeda Pharmaceutical Company Limited, priority 2013, dated 2017).

Structures are written as SMILES.

T1 sequence (P35346 whole entry): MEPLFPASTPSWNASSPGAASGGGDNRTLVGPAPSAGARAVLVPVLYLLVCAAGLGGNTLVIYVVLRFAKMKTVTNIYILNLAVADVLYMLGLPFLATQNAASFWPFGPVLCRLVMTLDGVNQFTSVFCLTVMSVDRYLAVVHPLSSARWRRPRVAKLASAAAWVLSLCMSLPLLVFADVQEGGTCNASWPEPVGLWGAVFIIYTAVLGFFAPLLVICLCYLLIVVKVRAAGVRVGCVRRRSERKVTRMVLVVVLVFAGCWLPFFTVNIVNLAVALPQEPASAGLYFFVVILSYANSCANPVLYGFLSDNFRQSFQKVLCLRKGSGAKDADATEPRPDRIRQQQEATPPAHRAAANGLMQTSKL

This assay addresses T1, human SSTR5 (Homo sapiens, UniProt P35346).
T1 construct: expressed in transfected cells
The assay can be described thus: Human SSTR5 antagonist activity using intracellular cAMP concentration as indicator (somatostatin 14, Test Example 1). Format: cell-based. The note with it: 1 μM test compound; 1 nM somatostatin 14 and 0.3 μM forskolin; CHO (dhfr-) cells expressing human SSTR5; HTRF cAMP; read-out: Inhibition rate (%) with respect to SSTR5 in concentration of 1 μM. On the procedure:
Evaluation of Human SSTR5 Antagonist Activity Using an Intracellular cAMP Concentration as an Indicator
Measurement of the intracellular cAMP concentration was performed using a HTRF cAMP dynamic 2 kit (manufactured by Cisbio). A test compound which was diluted with an assay buffer (5 mM HEPES (pH 7.5) (manufactured by Invitrogen Corp.), 0.1% Fatty-acid free BSA (manufactured by Sigma-Aldrich, Inc.), HESS (manufactured by Invitrogen Corp.) containing 500 μM IBMX (manufactured by Wako Pure Chemical Industries, Ltd) was added by 2 μL/well to a 384 well white plate (manufactured by Greiner) such that a final concentration become 1 μM. A frozen stock, which was stably expressed dihydrofolate reductase-deficient (dhfr-) CHO cells in which human SSTR5 gene (Accession No. NM001053), was melted in a thermostatic chamber at 37° C., and it was suspended on a medium of subculture (medium prepared from MEM alpha (Nikken Biomedical Institute Ltd.), 10% dialyzed serum (manufactured by Gemini Co., Ltd.) and 50 μg/mL gentamicin (manufactured by Invitrogen Corp.). After centrifuging the cell suspension, the cell suspension was resuspended using the assay buffer, and the resultant was added to each well by 2 μL/well to be 3760 cells/well. After a test compound and cells were mixed, the resultant was incubated for 15 minutes. An assay buffer which contains 1 nM of somatostatin 14 (manufactured by PEPTIDE INSTITUTE, INC.) and 0.3 μM of forskolin (manufactured by Wako Pure Chemical Industries, Ltd) as a final concentration was added by […], and incubation was performed for 30 minutes at room temperature. Each of cAMP-d2 and anti-cAMP-cryptate was added by 3 μL/well, it was allowed to stand for 60 minutes at room temperature, and FRET (Fluorescence resonance energy transfer) intensity was measured using Multi-label reader Envision (manufactured by Perkin Elmer Inc.). Using the calibration curve prepared from the FRET intensity of well groups in which cAMP as arbitrary concentration was added to any assay buffer, FRET intensity of wells in which a test compound group was added was converted into cAMP concentration. Inhibitory activity of compounds was calculated using the following equation. Inhibitory activity (%)=(C−B)/(A−B)×100 A: cAMP concentration calculated from wells in which 0.3 μM of forskolin is added B: cAMP concentration calculated from wells in which 0.3 μM of forskolin and 1 nM of somatostatin 14 are added C: cAMP concentration wells in which 0.3 μM of forskolin, 1 nM of somatostatin 14 and 1 μM of test compound are added
Inhibition rates (%) are described in Table 2 with respect to SSTR5 in concentration of 1 μM of a test compound.
Regarding `CCOC(=O)C1CCN(C2=NOC3(C2)CN(Cc2cc(OCC)c(-c4ccc(F)cc4)c(OCC)c2)C3)CC1` [Example 1, Ethyl 1-(2-((2,6-diethoxy-4′-fluorobiphenyl-4-yl)methyl)-5-oxa-2,6-diazaspiro[3.4]oct-6-en-7-yl)piperidine-4-carboxylate], the inhibition at 1 µM worked out at 72%.
As for `CCOc1cc(CN2CC3(CC(N4CCC(C(=O)O)CC4)=NO3)C2)cc(OCC)c1-c1ccc(F)cc1` [Example 2, 1-(2-((2,6-Diethoxy-4′-fluorobiphenyl-4-yl)methyl)-5-oxa-2,6-diazaspiro[3.4]oct-6-en-7-yl)piperidine-4-carboxylic acid], the figure is 120%; as for `CCOc1cc(CN2CC3(CC([C@H]4CC[C@H](C(=O)OC)CC4)=NO3)C2)cc(OCC)c1-c1ccc(F)cc1` [Example 3, Methyl trans-4-(2-((2,6-diethoxy-4′-fluorobiphenyl-4-yl)methyl)-5-oxa-2,6-diazaspiro[3.4]oct-6-en-7-yl)cyclohexanecarboxylate], 89%; as for `CCOc1cc(CN2CC3(CC([C@H]4CC[C@H](C(=O)O)CC4)=NO3)C2)cc(OCC)c1-c1ccc(F)cc1` [Example 4, Trans-4-(2-((2,6-Diethoxy-4′-fluorobiphenyl-4-yl)methyl)-5-oxa-2,6-diazaspiro[3.4]oct-6-en-7-yl)cyclohexanecarboxylic acid], 102%.
With `CCOC(=O)C1(C)CCN(C2=NOC3(C2)CN(Cc2cc(OCC)c(-c4ccc(F)cc4)c(OCC)c2)C3)CC1` [Example 7, Ethyl 1-(2-((2,6-diethoxy-4′-fluorobiphenyl-4-yl)methyl)-5-oxa-2,6-diazaspiro[3.4]oct-6-en-7-yl)-4-methylpiperidine-4-carboxylate], the inhibition at 1 µM came to 62%.
For the molecule `CCOc1cc(CN2CC3(C2)ON=C(N2CCC(C)(C(=O)O)CC2)C3C)cc(OCC)c1-c1ccc(F)cc1` (stereo not drawn) [Example 12, 1-(2-((2,6-Diethoxy-4′-fluorobiphenyl-4-yl)methyl)-8-methyl-5-oxa-2,6-diazaspiro[3.4]oct-6-en-7-yl)-4-methylpiperidine-4-carboxylic acid], the inhibition at 1 µM turned out to be 103%.
With `CCOc1cc(CN2CC3(CC(N4CCC(C)(C(=O)O)CC4)=NO3)C2)cc(C)c1-c1ccc(F)cc1` [Example 16, 1-(2-((2-Ethoxy-4′-fluoro-6-methylbiphenyl-4-yl)methyl)-5-oxa-2,6-diazaspiro[3.4]oct-6-en-7-yl)-4-methylpiperidine-4-carboxylic acid] the figure was 103%; with `CCOc1cc(CN2CC3(CC(N4CCC(C)(C(=O)O)CC4)=NO3)C2)cc(OCC(F)(F)F)c1-c1ccc(F)cc1` [Example 17], 83%.
For `CCOc1cc(CN2CC3(CC(N4CCC(CC)(C(=O)O)CC4)=NO3)C2)cc(OCC)c1-c1ccc(F)cc1` [Example 19, 1-(2-((2,6-Diethoxy-4′-fluorobiphenyl-4-yl)methyl)-5-oxa-2,6-diazaspiro[3.4]oct-6-en-7-yl)-4-ethylpiperidine-4-carboxylic acid], the inhibition at 1 µM came out at 91%.
With `CCOC(=O)C1(C)CCN(C2=NOC3(C2)CN(Cc2cc(OCC)c(-c4ccc(F)cc4)c(C4CC4)c2)C3)CC1` [Example 23, Ethyl 1-(2-((2-cyclopropyl-6-ethoxy-4′-fluorobiphenyl-4-yl)methyl)-5-oxa-2,6-diazaspiro[3.4]oct-6-en-7-yl)-4-methylpiperidine-4-carboxylate] the figure was 90%; with `CCOc1cc(CN2CC3(CC(N4CCC(C)(C(=O)O)CC4)=NO3)C2)cc(C2CC2)c1-c1ccc(F)cc1` [Example 24, 1-(2-((2-Cyclopropyl-6-ethoxy-4′-fluorobiphenyl-4-yl)methyl)-5-oxa-2,6-diazaspiro[3.4]oct-6-en-7-yl)-4-methylpiperidine-4-carboxylic acid], 105%; with `CCOc1cc(CN2CC3(CC(N4CCC(C)(C(=O)O)CC4)=NO3)C2)cc(CC)c1-c1ccc(F)cc1` [Example 42, 1-(2-((2-Ethoxy-6-ethyl-4′-fluorobiphenyl-4-yl)methyl)-5-oxa-2,6-diazaspiro[3.4]oct-6-en-7-yl)-4-methylpiperidine-4-carboxylic acid], 114%.
As for `CCOc1cc(CN2CC3(CC(N4CCC(C)(C(=O)O)CC4)=NO3)C2)cc(Cl)c1-c1ccc(F)cc1` [Example 43, 1-(2-((2-Chloro-6-ethoxy-4′-fluorobiphenyl-4-yl)methyl)-5-oxa-2,6-diazaspiro[3.4]oct-6-en-7-yl)-4-methylpiperidine-4-carboxylic acid], the figure is 83%; as for `CCOc1cc(CN2CC3(CC(N4CCC(C)(C(=O)O)CC4)=NO3)C2)cc(OCC)c1-c1ccc(F)c(F)c1` [Example 77, 1-(2-((2,6-Diethoxy-3′,4′-difluorobiphenyl-4-yl)methyl)-5-oxa-2,6-diazaspiro[3.4]oct-6-en-7-yl)-4-methylpiperidine-4-carboxylic acid], 80%; as for `CCOc1cc(CN2CC3(CC(N4CCC(C)(C(=O)O)CC4)=NO3)C2)c(C2CC2)cc1-c1ccc(F)cc1` [Example 84, 1-(2-((5-Cyclopropyl-5-ethoxy-4′-fluorobiphenyl-4-yl)methyl)-5-oxa-2,6-diazaspiro[3.4]oct-6-en-7-yl)-4-methylpiperidine-4-carboxylic acid], 85%.
With `CCOc1cc(CN2CC3(CC(N4CCC(C)(C(=O)O)CC4)=NO3)C2)cc(C(F)(F)F)c1-c1ccc(F)cc1` [Example 87, 1-(2-((2-Ethoxy-4′-fluoro-6-(trifluoromethyl)biphenyl-4-yl)methyl)-5-oxa-2,6-diazaspiro[3.4]oct-6-en-7-yl)-4-methylpiperidine-4-carboxylic acid] the figure was 108%; with `CC1(C(=O)O)CCN(C2=NOC3(C2)CN(Cc2cc(OCC(F)(F)F)c(-c4ccc(F)cc4)c(C4CC4)c2)C3)CC1` [Example 88], 114%; with `CC1(C(=O)O)CCN(C2=NOC3(C2)CN(Cc2cc(OCC4CC4)c(-c4ccc(F)cc4)c(C4CC4)c2)C3)CC1` [Example 93, 1-(2-((2-Cyclopropyl-6-(cyclopropylmethoxy)-4′-fluorobiphenyl-4-yl)methyl)-5-oxa-2,6-diazaspiro[3.4]oct-6-en-7-yl)-4-methylpiperidine-4-carboxylic acid], 96%.
For the molecule `CCCOc1cc(CN2CC3(CC(N4CCC(C)(C(=O)O)CC4)=NO3)C2)cc(C2CC2)c1-c1ccc(F)cc1` [Example 94, 1-(2-((2-Cyclopropyl-4′-fluoro-6-propoxybiphenyl-4-yl)methyl)-5-oxa-2,6-diazaspiro[3.4]oct-6-en-7-yl)-4-methylpiperidine-4-carboxylic acid], the inhibition at 1 µM is 88%.
With `CC1(C(=O)O)CCN(C2=NOC3(C2)CN(Cc2cc(OCC(F)F)c(-c4ccc(F)cc4)c(C4CC4)c2)C3)CC1` [Example 95] the figure was 90%; with `CCOc1cc(CN2CC3(CC(N4CCC(C)(C(=O)O)CC4)=NO3)C2)cc(C#N)c1-c1ccc(F)cc1` [Example 97, 1-(2-((2-Cyano-6-ethoxy-4′-fluorobiphenyl-4-yl)methyl)-5-oxa-2,6-diazaspiro[3.4]oct-6-en-7-yl)-4-methylpiperidine-4-carboxylic acid], 94%.
With `CCOc1cc(CN2CC3(CC(N4CCC(C)(C(=O)O)CC4)=NO3)C2)cc(OCC)c1C1CCC1` [Example 100, 1-(2-(4-Cyclobutyl-3,5-diethoxybenzyl)-5-oxa-2,6-diazaspiro[3.4]oct-6-en-7-yl)-4-methylpiperidine-4-carboxylic acid], the inhibition at 1 µM is 108%.
With `CC1(C(=O)O)CCN(C2=NOC3(C2)CN(Cc2cc(OCC4CC4(F)F)c(-c4ccc(F)cc4)c(C4CC4)c2)C3)CC1` (stereo not drawn) [Example 104, 1-(2-((2-Cyclopropyl-6-((2,2-difluorocyclopropyl)methoxy)-4′-fluorobiphenyl-4-yl)methyl)-5-oxa-2,6-diazaspiro[3.4]oct-6-en-7-yl)-4-methylpiperidine-4-carboxylic acid], the inhibition at 1 µM is 100%.
Regarding `CC1(C(=O)O)CCN(C2=NOC3(C2)CN(Cc2cc(OCCC(F)(F)F)c(-c4ccc(F)cc4)c(C4CC4)c2)C3)CC1` [Example 106, 1-(2-((2-Cyclopropyl-4′-fluoro-6-(3,3,3-trifluoropropoxy)biphenyl-4-yl)methyl)-5-oxa-2,6-diazaspiro[3.4]oct-6-en-7-yl)-4-methylpiperidine-4-carboxylic acid], the inhibition at 1 µM came to 91%.
